# From publication PMC3514653 (Neuromodulation : journal of the International …, 2012)
# What was measured:
# Male beagle dogs = settings: dog, in vivo
# [1] = dog; intrathecal; cited from earlier work
# [2] = dog, in vivo
compound,measurement,setting,value
CSCC[C@@H]1NC(=O)[C@H](CC(C)C)NC(=O)[C@H](CCCNC(=N)N)NC(=O)[C@H](CO)NC(=O)[C@@H]2CSSC[C@@H]3NC(=O)[C@H](CO)NC(=O)CNC(=O)[C@H]([C@@H](C)O)NC(=O)[C@H](CSSC[C@H](N)C(=O)N[C@@H](CCCCN)C(=O)NCC(=O)N[C@@H](CCCCN)C(=O)NCC(=O)N[C@@H](C)C(=O)N[C@@H](CCCCN)C(=O)N2)NC(=O)[C@H](CSSC[C@@H](C(N)=O)NC(=O)[C@H](CCCCN)NC(=O)CNC(=O)[C@H](CO)NC(=O)[C@H](CCCNC(=N)N)NC3=O)NC(=O)[C@H](CC(=O)O)NC(=O)[C@H](Cc2ccc(O)cc2)NC1=O [Ziconotide],"Decreased arousal and activity (remained responsive), dogs affected",Male beagle dogs,All 5 dogs
O=C(c1ccccc1)c1ccc2n1CCC2C(=O)O (stereo not drawn) [ketorolac],T1/2 (CSF elimination) in this model,[1],54 min
inulin [[^3H]Inulin],T1/2 α in LCSF,[2],9.6 min
